Laboratory results from patent US8846653B2, “Delta-tocotrienol treatment and prevention of pancreatic cancer” (University of South Florida, priority 2006, dated 2014).

How the values were obtained:
Format in all cases: cell-based, human
MiaPaCa-2 cells [1] = assay: MTS assay of MiaPaCa2 cultures, single 50 μM dose; conditions: MiaPaCa2, 50 μM
Experimental: MiaPaCa-2 cells were cultured in complete DMEM media containing 10% fetal bovine serum (FBS) and 1% penicillin-streptomycin, and 1% L-glutamine. BxPc-3 pancreatic cancer cells were cultured in complete RPMI media containing 10% fetal bovine serum (FBS), and 1% penicillin-streptomycin, 1% HEPES buffer, 1% sodium pyruvate and 1% L-glutamine HPDE6-C7 cells were cultured in serum-free keratinocyte SFM media. All cells were maintained at 37° C. in a humidified incubator with 5% CO2. The cells were treated with a single 50 μM dose of vehicle (vehicle only, may be a solvent), T3 alpha (alpha tocotrienol), T3 beta (beta tocotrienol), T3 gamma (gamma tocotrienol), T3 delta (delta tocotrienol), T alpha (alpha tocopherol), T beta (beta tocopherol), TS (tocopherol succinate), GG (geranylgeraniol), SA (succinic acid). A control (no treatment) culture was grown alongside the treatments for comparison. […]

MiaPaCa-2 cells [2] = assay: MTT assay of MiaPaCa2 cultures, single 50 μM dose; parameters: rel amt (relative value set to the control): unit not given here; conditions: MiaPaCa2, 50 μM; for MTT assay result, av-blank: average minus blank; for MTT assay result, av: average of 7 runs
Experimental: MiaPaCa-2, BxPc-3, and HPDE6-C7 cells were cultured as described above, and treated with a single 50 μM dose of vehicle (ethanol extracted olive oil), T3 alpha (alpha tocotrienol), T3 beta (beta tocotrienol), T3 gamma (gamma tocotrienol), T3 delta (delta tocotrienol), T alpha (alpha tocopherol), T beta (beta tocopherol), TS (tocopherol succinate), GG (geranylgeraniol), SA (succinic acid). A control culture (vehicle only with no treatment) was grown alongside the treatments for comparison. Cell viability was measured using MTT assay at preselect times of 48 or 120 hours after treatment.

BXPC3 cells = assay: MTT assay of BXPC3 cultures, single 50 μM dose; parameters: MTT assay result, run 1 / MTT assay result, run 2 / MTT assay result, run 3 / MTT assay result, run 4 / MTT assay result, run 5 / MTT assay result, run 6 / MTT assay result, run 7 / MTT assay result, av (average) / MTT assay result, av-blank / MTT assay result, av: unit not given here; conditions: BXPC3, 50 μM; for MTT assay result, av-blank: average minus blank
Experimental: BXPC3 cells were cultured in complete […] media containing 10% fetal bovine serum (FBS) and 1% penicillin-streptomycin, and 1% L-glutamine. BxPc-3 pancreatic cancer cells were cultured in complete RPMI media containing 10% fetal bovine serum (FBS), and 1% penicillin-streptomycin, 1% HEPES buffer, 1% sodium pyruvate and 1% L-glutamine HPDE6-C7 cells were cultured in serum-free keratinocyte SFM media. All cells were maintained at 37° C. in a humidified incubator with 5% CO2. The cells were treated with a single 50 μM dose of vehicle (vehicle only, may be a solvent), T3 alpha (alpha tocotrienol), T3 beta (beta tocotrienol), T3 gamma (gamma tocotrienol), T3 delta (delta tocotrienol), T alpha (alpha tocopherol), T beta (beta tocopherol), TS (tocopherol succinate), GG (geranylgeraniol), SA (succinic acid). A control (no treatment) culture was grown alongside the treatments for comparison. Cell viability was measured using MTT assay at preselect times of 48 or 120 hours after treatment.

## Cc1c(C)c2c(c(C)c1O)CC[C@@](C)(CCC[C@H](C)CCC[C@H](C)CCCC(C)C)O2 [T alpha, alpha tocopherol]
MiaPaCa-2 cells [1]; 24 hours
  rel amt (relative value set to the control): 111
  MTS assay result, run 1: 0.249
  MTS assay result, run 2: 0.25
  MTS assay result, run 3: 0.253
  MTS assay result, run 4: 0.207
  MTS assay result, run 5: 0.253
  MTS assay result, run 6: 0.238
  MTS assay result, run 7: 0.27
  MTS assay result, run 8: 0.254
  MTS assay result, run 9: 0.247
MiaPaCa-2 cells [1]; 48 hours
  rel amt (relative value set to the control): 86
  MTS assay result, run 1: 0.308
  MTS assay result, run 2: 0.313
  MTS assay result, run 3: 0.342
  MTS assay result, run 4: 0.269
  MTS assay result, run 5: 0.352
  MTS assay result, run 6: 0.277
  MTS assay result, run 7: 0.305
  MTS assay result, run 8: 0.339
  MTS assay result, run 9: 0.313
MiaPaCa-2 cells [1]; 72 hours
  rel amt (relative value set to the control): 103
  MTS assay result, run 1: 0.523
  MTS assay result, run 2: 0.478
  MTS assay result, run 3: 0.464
  MTS assay result, run 4: 0.453
  MTS assay result, run 5: 0.443
  MTS assay result, run 6: 0.456
  MTS assay result, run 7: 0.383
  MTS assay result, run 8: 0.451
  MTS assay result, run 9: 0.456
MiaPaCa-2 cells [2]; 48 hours
  rel amt (relative value set to the control): 95
  MTT assay result, av-blank: 0.296
  MTT assay result, av: 0.342
  MTT assay result, run 1: 0.365
  MTT assay result, run 2: 0.352
  MTT assay result, run 3: 0.339
  MTT assay result, run 4: 0.338
  MTT assay result, run 5: 0.35
  MTT assay result, run 6: 0.297
  MTT assay result, run 7: 0.35
MiaPaCa-2 cells [2]; 120 hours (5 days)
  rel amt (relative value set to the control): 89
  MTT assay result, av-blank: 1.604
  MTT assay result, av: 1.656
  MTT assay result, run 1: 1.56
  MTT assay result, run 2: 1.647
  MTT assay result, run 3: 1.59
  MTT assay result, run 4: 1.619
  MTT assay result, run 5: 2.059
  MTT assay result, run 6: 1.526
  MTT assay result, run 7: 1.588
BXPC3 cells; 48 hours
  rel amt (relative value set to the control): 120
  MTT assay result, av-blank: 0.274
  MTT assay result, run 1: 0.333
  MTT assay result, run 2: 0.328
  MTT assay result, run 3: 0.352
  MTT assay result, run 4: 0.296
  MTT assay result, run 5: 0.3
  MTT assay result, run 6: 0.341
  MTT assay result, run 7: 0.312
BXPC3 cells; 48 hours, average of 7 runs
  MTT assay result, av (average): 0.323
BXPC3 cells; 120 hours (5 days)
  rel amt (relative value set to the control): 106
  MTT assay result, av-blank: 0.611
  MTT assay result, run 1: 0.657
  MTT assay result, run 2: 0.642
  MTT assay result, run 3: 0.666
  MTT assay result, run 4: 0.659
  MTT assay result, run 5: 0.705
  MTT assay result, run 6: 0.66
  MTT assay result, run 7: 0.672
BXPC3 cells; 120 hours (5 days), average of 7 runs
  MTT assay result, av: 0.666
